From article PMC5218480 (PLoS ONE, 2017)

System: MV-4-11 cells
Test: Gene expression microarray analysis (Affymetrix PrimeView) and GSEA
Type: cell-based, human
Set-up: RFU PODN (11730768_x_at) / Fold change /veh PODN (11730768_x_at) / RFU LINC00158 (11744669_a_at) / Fold change /veh LINC00158 (11744669_a_at) / RFU DUSP10 (11751237_a_at) / Fold change /veh DUSP10 (11751237_a_at) / RFU ID3 (11757404_x_at) / Fold change /veh ID3 (11757404_x_at) / RFU PLEKHG5 (11737974_s_at) / Fold change /veh PLEKHG5 (11737974_s_at) / RFU LRRC4B (11730491_at) / Fold change /veh LRRC4B (11730491_at) / RFU GIMAP4 (11747438_a_at) / Fold change /veh GIMAP4 (11747438_a_at) / RFU KRT8 (11758183_x_at) / Fold change /veh KRT8 (11758183_x_at) / RFU CNN1 (11734310_a_at) / Fold change /veh CNN1 (11734310_a_at) / RFU VPS37D (11726825_at) / Fold change /veh VPS37D (11726825_at) / RFU C10orf10 (11716522_x_at) / Fold change /veh C10orf10 (11716522_x_at) / RFU KIR2DL2 /// KIR2DL4 /// KIR2DL5A /// KIR2DL5B /// KIR2DS1 /// KIR2DS2 /// KIR2DS3 /// KIR2DS4 /// KIR3DL3 /// KIR3DL3 /// KIR3DS1 (11738374_at) / Fold change /veh KIR2DL2 /// KIR2DL4 /// KIR2DL5A /// KIR2DL5B /// KIR2DS1 /// KIR2DS2 /// KIR2DS3 /// KIR2DS4 /// KIR3DL3 /// KIR3DL3 /// KIR3DS1 (11738374_at) / RFU C1QL1 (11718748_at) / Fold change /veh C1QL1 (11718748_at) / RFU TMPRSS4 (11747572_a_at) / Fold change /veh TMPRSS4 (11747572_a_at) / RFU HAMP (11756126_x_at) / Fold change /veh HAMP (11756126_x_at) / RFU RNFT2 (11725882_a_at) / Fold change /veh RNFT2 (11725882_a_at) / RFU NR4A2 (11747474_a_at) / Fold change /veh NR4A2 (11747474_a_at) / RFU ABCC12 (11746883_a_at) / Fold change /veh ABCC12 (11746883_a_at) / RFU TMEM136 (11760407_x_at) / Fold change /veh TMEM136 (11760407_x_at) / RFU CLDN22 /// WWC2 (11732394_at) / Fold change /veh CLDN22 /// WWC2 (11732394_at) / RFU HLA-DPB1 (11760878_x_at) / Fold change /veh HLA-DPB1 (11760878_x_at) / RFU SPINT1 (11716480_a_at) / Fold change /veh SPINT1 (11716480_a_at) / RFU GAP43 (11754022_s_at) / Fold change /veh GAP43 (11754022_s_at) / RFU A4GNT (11735810_at) / Fold change /veh A4GNT (11735810_at) / RFU PRB3 (11715151_x_at) / Fold change /veh PRB3 (11715151_x_at) / RFU TUBB4B (11761932_at) / Fold change /veh TUBB4B (11761932_at) / RFU CAPN14 (11732068_a_at) / Fold change /veh CAPN14 (11732068_a_at) / RFU TMCC2 (11721928_a_at) / Fold change /veh TMCC2 (11721928_a_at) / RFU IRGQ (11745062_a_at) / Fold change /veh IRGQ (11745062_a_at) / RFU FAM174B (11720279_a_at) / Fold change /veh FAM174B (11720279_a_at) / RFU TMPRSS4 (11748680_a_at) / Fold change /veh TMPRSS4 (11748680_a_at) / RFU FAM212B (11763350_a_at) / Fold change /veh FAM212B (11763350_a_at) / RFU PLEKHG5 (11743358_a_at) / Fold change /veh PLEKHG5 (11743358_a_at) / RFU ZSCAN30 (11745921_a_at) / Fold change /veh ZSCAN30 (11745921_a_at) / RFU CMKLR1 (11741424_a_at) / Fold change /veh CMKLR1 (11741424_a_at) / RFU LOC101060620 /// MAPK8IP1 (11723275_at) / Fold change /veh LOC101060620 /// MAPK8IP1 (11723275_at) / RFU SPTSSB (11747773_x_at) / Fold change /veh SPTSSB (11747773_x_at) / RFU PRSS12 (11739890_at) / Fold change /veh PRSS12 (11739890_at) / RFU BIN1 (11741810_x_at) / Fold change /veh BIN1 (11741810_x_at) / RFU WNT11 (11732464_a_at) / Fold change /veh WNT11 (11732464_a_at) / RFU C10orf10 (11716521_a_at) / Fold change /veh C10orf10 (11716521_a_at) / RFU C5orf56 (11738089_at) / Fold change /veh C5orf56 (11738089_at) / RFU CYB561 (11721691_x_at) / Fold change /veh CYB561 (11721691_x_at) / RFU ANKRD19P (11752326_a_at) / Fold change /veh ANKRD19P (11752326_a_at) / RFU OR2T12 /// OR2T33 /// OR2T8 (11738714_s_at) / Fold change /veh OR2T12 /// OR2T33 /// OR2T8 (11738714_s_at) / RFU VCAN (11748164_a_at) / Fold change /veh VCAN (11748164_a_at) / RFU JSRP1 (11732532_at) / Fold change /veh JSRP1 (11732532_at) / RFU KRTAP10-11 (11738290_x_at) / Fold change /veh KRTAP10-11 (11738290_x_at) / RFU MYO3A (11730013_a_at) / Fold change /veh MYO3A (11730013_a_at) / RFU EBF3 (11725865_a_at) / Fold change /veh EBF3 (11725865_a_at) / RFU CAMK2N1 (11719241_x_at) / Fold change /veh CAMK2N1 (11719241_x_at) / RFU C5orf56 (11738088_a_at) / Fold change /veh C5orf56 (11738088_a_at) / RFU OLFML3 (11715873_a_at) / Fold change /veh OLFML3 (11715873_a_at) / RFU LOC100653217 /// NTM (11731650_a_at) / Fold change /veh LOC100653217 /// NTM (11731650_a_at) / RFU MAPK11 (11762145_a_at) / Fold change /veh MAPK11 (11762145_a_at) / RFU FIZ1 (11724087_x_at) / Fold change /veh FIZ1 (11724087_x_at) / RFU OASL (11726364_x_at) / Fold change /veh OASL (11726364_x_at) / RFU SOX15 (11748057_x_at) / Fold change /veh SOX15 (11748057_x_at) / RFU CD79A (11719716_a_at) / Fold change /veh CD79A (11719716_a_at) / RFU HIST1H1D (11736915_at) / Fold change /veh HIST1H1D (11736915_at) / RFU CASKIN2 (11723855_a_at) / Fold change /veh CASKIN2 (11723855_a_at) / RFU LOC730098 (11760151_x_at) / Fold change /veh LOC730098 (11760151_x_at) / RFU OR4N2 (11742367_at) / Fold change /veh OR4N2 (11742367_at) / RFU PRRT2 (11749266_a_at) / Fold change /veh PRRT2 (11749266_a_at) / RFU SNX32 (11753110_a_at) / Fold change /veh SNX32 (11753110_a_at) / RFU CDHR5 (11726645_a_at) / Fold change /veh CDHR5 (11726645_a_at) / RFU RCAN1 (11760418_a_at) / Fold change /veh RCAN1 (11760418_a_at) / RFU FAM167A (11723789_a_at) / Fold change /veh FAM167A (11723789_a_at) / RFU FAM26E (11764081_at) / Fold change /veh FAM26E (11764081_at) / RFU ISYNA1 (11749810_s_at) / Fold change /veh ISYNA1 (11749810_s_at) / RFU ACY1 (11761880_at) / Fold change /veh ACY1 (11761880_at) / RFU 11764098_at / Fold change /veh 11764098_at / RFU SAMD14 (11745864_x_at) / Fold change /veh SAMD14 (11745864_x_at) / RFU NPB (11741838_a_at) / Fold change /veh NPB (11741838_a_at) / RFU TMPRSS6 (11731388_a_at) / Fold change /veh TMPRSS6 (11731388_a_at) / RFU KRTAP10-2 (11738614_at) / Fold change /veh KRTAP10-2 (11738614_at) / RFU ARHGAP8 /// PRR5-ARHGAP8 (11727945_x_at) / Fold change /veh ARHGAP8 /// PRR5-ARHGAP8 (11727945_x_at) / RFU KRTAP5-7 /// NADSYN1 (11734609_at) / Fold change /veh KRTAP5-7 /// NADSYN1 (11734609_at) / RFU RASL12 (11751679_a_at) / Fold change /veh RASL12 (11751679_a_at) / RFU CDKN2B (11736163_a_at) / Fold change /veh CDKN2B (11736163_a_at) / RFU PRF1 (11729649_at) / Fold change /veh PRF1 (11729649_at) / RFU, ZNF638 /// ZNF638-IT1 / Fold change vs veh, ZNF638 /// ZNF638-IT1 / RFU, PANK3 / Fold change vs veh, PANK3 / RFU, SH3YL1 / Fold change vs veh, SH3YL1 / RFU, ZEB2 / Fold change vs veh, ZEB2 / RFU, NRIP1 / Fold change vs veh, NRIP1 / RFU, PTTG1IP / Fold change vs veh, PTTG1IP / RFU, CAPN2 / Fold change vs veh, CAPN2 / RFU, MED14 / Fold change vs veh, MED14 / RFU, SNORA58 / Fold change vs veh, SNORA58 / RFU, C1orf63 / Fold change vs veh, C1orf63 / RFU, LRRFIP1 / Fold change vs veh, LRRFIP1 / RFU, NDUFAF7 / Fold change vs veh, NDUFAF7 / RFU, SLC12A2 / Fold change vs veh, SLC12A2 / RFU, IBTK / Fold change vs veh, IBTK / RFU, ESF1 / Fold change vs veh, ESF1 / Fold change vs veh, TMEM50B / RFU, TAOK1 / Fold change vs veh, TAOK1 / RFU, ACBD3 / Fold change vs veh, ACBD3 / RFU, TMA16 / Fold change vs veh, TMA16 / RFU, RWDD3 / Fold change vs veh, RWDD3 / RFU, BCAT1 / Fold change vs veh, BCAT1 / RFU, EDEM3 / Fold change vs veh, EDEM3 / RFU, TMEM33 / Fold change vs veh, TMEM33 / RFU, WDR75 / Fold change vs veh, WDR75 / RFU, AHCTF1 / Fold change vs veh, AHCTF1 / RFU, TFRC / Fold change vs veh, TFRC / RFU, ZDHHC17 / Fold change vs veh, ZDHHC17 / RFU, NOM1 / Fold change vs veh, NOM1 / RFU, ARL8B / Fold change vs veh, ARL8B / RFU, ZBTB11 / Fold change vs veh, ZBTB11 / RFU, TAMM41 / Fold change vs veh, TAMM41 / RFU, KIAA1704 /// LOC100996395 / Fold change vs veh, KIAA1704 /// LOC100996395 / RFU, ING1 / Fold change vs veh, ING1 / RFU, TRMT61B / Fold change vs veh, TRMT61B / RFU, FUBP3 / Fold change vs veh, FUBP3 / RFU, TP53 / Fold change vs veh, TP53 / RFU, TNKS2 / Fold change vs veh, TNKS2 / RFU, ZFP14 / Fold change vs veh, ZFP14 / RFU, ACTR2 / Fold change vs veh, ACTR2 / RFU, PPP3R1 / Fold change vs veh, PPP3R1 / RFU, PIK3R1 / Fold change vs veh, PIK3R1 / RFU, HNRNPA1 / Fold change vs veh, HNRNPA1 / RFU, RNF170 / Fold change vs veh, RNF170 / RFU, ZNF28 / Fold change vs veh, ZNF28 / RFU, RNGTT / Fold change vs veh, RNGTT / RFU, OGT / Fold change vs veh, OGT / RFU, BRD1 / Fold change vs veh, BRD1 / RFU, MARS / Fold change vs veh, MARS / RFU, ZNF655 / Fold change vs veh, ZNF655 / RFU, FAHD1 / Fold change vs veh, FAHD1 / RFU, BDP1 / Fold change vs veh, BDP1 / RFU, LRRCC1 / Fold change vs veh, LRRCC1 / RFU, ARID1A / Fold change vs veh, ARID1A / RFU, ZNF146 / Fold change vs veh, ZNF146 / RFU, ZNF330 / Fold change vs veh, ZNF330 / RFU, GPN3 / Fold change vs veh, GPN3 / RFU, C9orf123 / Fold change vs veh, C9orf123 / RFU, N4BP2L2 / Fold change vs veh, N4BP2L2 / RFU, ARFIP1 / Fold change vs veh, ARFIP1 / RFU, FAM179B / Fold change vs veh, FAM179B / RFU, BCL10 / Fold change vs veh, BCL10 / RFU, UHRF1BP1L / Fold change vs veh, UHRF1BP1L / RFU, BET1 / Fold change vs veh, BET1 / RFU, CNOT2 / Fold change vs veh, CNOT2 / RFU, ZNF268 / Fold change vs veh, ZNF268 / Fold change vs veh, ZNF507 / RFU, DGCR2 / Fold change vs veh, DGCR2 / RFU, WDSUB1 / Fold change vs veh, WDSUB1 / Fold change vs veh, HSP90B1 /// MIR3652 / RFU, ADSS / Fold change vs veh, ADSS / RFU, GK / Fold change vs veh, GK / RFU, ZNF148 / Fold change vs veh, ZNF148 / RFU, TAF9 / Fold change vs veh, TAF9 / RFU, SLC1A5 / Fold change vs veh, SLC1A5 / RFU, SLMO2 / Fold change vs veh, SLMO2 / RFU, ABCC4 / Fold change vs veh, ABCC4 / RFU, LOC101060439 /// RAP1B / Fold change vs veh, LOC101060439 /// RAP1B / RFU, RFX7 / Fold change vs veh, RFX7 / RFU, GTPBP10 / Fold change vs veh, GTPBP10 / RFU, CNEP1R1 / Fold change vs veh, CNEP1R1 / RFU, BIVM-ERCC5 /// ERCC5 / Fold change vs veh, BIVM-ERCC5 /// ERCC5 / RFU, ILF3 / Fold change vs veh, ILF3 / RFU 11762660_at / Fold change /veh 11762660_at / RFU VCAN (11757783_s_at) / Fold change /veh VCAN (11757783_s_at) / RFU DDX43 (11728927_at) / Fold change /veh DDX43 (11728927_at) / RFU KRT8 (11758188_x_at) / Fold change /veh KRT8 (11758188_x_at) / RFU NKD1 (11759106_at) / Fold change /veh NKD1 (11759106_at) / RFU SRD5A1 (11742802_a_at) / Fold change /veh SRD5A1 (11742802_a_at) / RFU TPSAB1 /// TPSB2 (11721975_s_at) / Fold change /veh TPSAB1 /// TPSB2 (11721975_s_at) / RFU GSTM3 (11746129_a_at) / Fold change /veh GSTM3 (11746129_a_at) / RFU IL23R (11737362_x_at) / Fold change /veh IL23R (11737362_x_at) / RFU TMEM51 (11727254_a_at) / Fold change /veh TMEM51 (11727254_a_at) / RFU PIWIL2 (11732686_x_at) / Fold change /veh PIWIL2 (11732686_x_at) / RFU ORM1 (11744905_x_at) / Fold change /veh ORM1 (11744905_x_at) / RFU CCDC152 (11743942_at) / Fold change /veh CCDC152 (11743942_at) / RFU ECM1 (11717891_a_at) / Fold change /veh ECM1 (11717891_a_at) / RFU IL23R (11748794_a_at) / Fold change /veh IL23R (11748794_a_at) / RFU TNFAIP8L3 (11732012_x_at) / Fold change /veh TNFAIP8L3 (11732012_x_at) / RFU MBOAT4 (11741988_at) / Fold change /veh MBOAT4 (11741988_at) / RFU 11764193_at / Fold change /veh 11764193_at / RFU TMEM53 (11763286_at) / Fold change /veh TMEM53 (11763286_at) / RFU MAGEB2 (11727129_at) / Fold change /veh MAGEB2 (11727129_at) / RFU TMEM200A (11744735_a_at) / Fold change /veh TMEM200A (11744735_a_at) / RFU CCDC152 (11751479_a_at) / Fold change /veh CCDC152 (11751479_a_at) / RFU FAM211A (11726209_a_at) / Fold change /veh FAM211A (11726209_a_at) / RFU RGS16 (11746705_a_at) / Fold change /veh RGS16 (11746705_a_at) / RFU VCAN (11755009_s_at) / Fold change /veh VCAN (11755009_s_at) / RFU RHOB (11743442_s_at) / Fold change /veh RHOB (11743442_s_at) / RFU RGS16 (11720943_a_at) / Fold change /veh RGS16 (11720943_a_at) / RFU RGS16 (11720944_at) / Fold change /veh RGS16 (11720944_at) / RFU, VPS4B / Fold change vs veh, VPS4B / RFU, CREB1 / Fold change vs veh, CREB1 / RFU, DNAJC13 / Fold change vs veh, DNAJC13 / RFU, GNAQ / Fold change vs veh, GNAQ / RFU, CDK5R1 / Fold change vs veh, CDK5R1 / RFU, ZRANB3 / Fold change vs veh, ZRANB3 / RFU, CUL4A / Fold change vs veh, CUL4A / RFU, CCNY / Fold change vs veh, CCNY / RFU, UFL1 / Fold change vs veh, UFL1 / RFU, COG3 / Fold change vs veh, COG3 / RFU, DIAPH2 / Fold change vs veh, DIAPH2 / RFU, SKA2 / Fold change vs veh, SKA2 / RFU, AFF3 / Fold change vs veh, AFF3 / RFU, LMF1 / Fold change vs veh, LMF1 / RFU, IPO11 / Fold change vs veh, IPO11 / RFU, DFFB / Fold change vs veh, DFFB / RFU, FOXP1 / Fold change vs veh, FOXP1 / RFU, CARD8 / Fold change vs veh, CARD8 / RFU, STRN3 / Fold change vs veh, STRN3 / RFU, ADK / Fold change vs veh, ADK / RFU, RASSF2 / Fold change vs veh, RASSF2 / RFU, WIPF1 / Fold change vs veh, WIPF1 / RFU, LARP1B / Fold change vs veh, LARP1B / RFU, RASA1 / Fold change vs veh, RASA1 / RFU, RB1 / Fold change vs veh, RB1 / RFU, PPFIA1 / Fold change vs veh, PPFIA1 / RFU, MAT2A / Fold change vs veh, MAT2A / RFU, CCT5 / Fold change vs veh, CCT5 / RFU, WDR92 / Fold change vs veh, WDR92 / RFU, CUX1 / Fold change vs veh, CUX1 / RFU, TTC7A / Fold change vs veh, TTC7A / RFU, TMEM135 / Fold change vs veh, TMEM135 / RFU, DEPTOR / Fold change vs veh, DEPTOR / RFU, CPM / Fold change vs veh, CPM / RFU, DNAJB6 / Fold change vs veh, DNAJB6 / RFU, CACNA2D3 / Fold change vs veh, CACNA2D3 / RFU, DTX4 / Fold change vs veh, DTX4 / RFU, TFCP2 / Fold change vs veh, TFCP2 / RFU, GMCL1 /// GMCL1P1 / Fold change vs veh, GMCL1 /// GMCL1P1 / RFU, AEBP2 / Fold change vs veh, AEBP2 / RFU, SNHG1 /// SNORD22 /// SNORD25 /// SNORD26 /// SNORD27 /// SNORD28 /// SNORD29 /// SNORD31 / Fold change vs veh, SNHG1 /// SNORD22 /// SNORD25 /// SNORD26 /// SNORD27 /// SNORD28 /// SNORD29 /// SNORD31 / Fold change (Aza/veh), C12orf56 (ProbeSet 11735607_a_at) / Fold change (ACY-1035/veh), C12orf56 (ProbeSet 11735607_a_at) / Fold change (Aza/veh), FGFR1OP (ProbeSet 11751329_s_at) / Fold change (ACY-1035/veh), FGFR1OP (ProbeSet 11751329_s_at) / Fold change (Aza/veh), VPS36 (ProbeSet 11739960_a_at) / Fold change (ACY-1035/veh), VPS36 (ProbeSet 11739960_a_at) / RFU SYPL1 (11715823_x_at) / Fold change /veh SYPL1 (11715823_x_at) / RFU IGFBP7 (11715501_s_at) / Fold change /veh IGFBP7 (11715501_s_at) / RFU REEP3 (11722064_at) / Fold change /veh REEP3 (11722064_at) / RFU IGLL1 (11728026_x_at) / Fold change /veh IGLL1 (11728026_x_at): dose or concentration left out as unconfirmed
Conditions: MV-4-11 cells, 48 hours

Nc1ncn([C@@H]2O[C@H](CO)[C@@H](O)[C@H]2O)c(=O)n1 [azacitidine]
RFU TMPRSS6 (11731388_a_at): 68.82 RFU
